Data as given in PubChem BioAssay (NCI).
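Protocol summary: plate cells (96-well), add compound at 5 concentrations, incubate 48 h, interpolate endpoints linearly. Here, GI50 denotes the concentration required for 50% inhibition of growth. TGI: concentration producing complete growth inhibition.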

Legend:
Assay in all cases: NCI-60 cell line screen, 48 h
786-0 renal = test system: 786-0 renal
A498 renal = test system: A498 renal
A549 NSCLC = test system: A549 NSCLC
ACHN renal = test system: ACHN renal
BT-549 breast = test system: BT-549 breast
CAKI-1 renal = test system: CAKI-1 renal
CCRF-CEM leukemia = test system: CCRF-CEM leukemia
COLO 205 colon = test system: COLO 205 colon
DU-145 prostate = test system: DU-145 prostate
EKVX NSCLC = test system: EKVX NSCLC
HCC-2998 colon = test system: HCC-2998 colon
HCT-116 colon = test system: HCT-116 colon
HCT-15 colon = test system: HCT-15 colon
HL-60(TB) leukemia = test system: HL-60(TB) leukemia
HOP-62 NSCLC = test system: HOP-62 NSCLC
HOP-92 NSCLC = test system: HOP-92 NSCLC
HS 578T breast = test system: HS 578T breast
HT29 colon = test system: HT29 colon
IGROV1 ovarian = test system: IGROV1 ovarian
K-562 leukemia = test system: K-562 leukemia
KM12 colon = test system: KM12 colon
LOX IMVI melanoma = test system: LOX IMVI melanoma
M14 melanoma = test system: M14 melanoma
MALME-3M melanoma = test system: MALME-3M melanoma
MCF7 breast = test system: MCF7 breast
MDA-MB-231 breast = test system: MDA-MB-231 breast
MDA-MB-435 = test system: MDA-MB-435
MOLT-4 leukemia = test system: MOLT-4 leukemia
NCI-H226 lung = test system: NCI-H226 lung
NCI-H460 lung = test system: NCI-H460 lung
NCI-H522 lung = test system: NCI-H522 lung
NCI/ADR-RES ovarian = test system: NCI/ADR-RES ovarian
OVCAR-3 ovarian = test system: OVCAR-3 ovarian
OVCAR-4 ovarian = test system: OVCAR-4 ovarian
OVCAR-5 ovarian = test system: OVCAR-5 ovarian
OVCAR-8 ovarian = test system: OVCAR-8 ovarian
PC-3 prostate = test system: PC-3 prostate
RPMI-8226 leukemia = test system: RPMI-8226 leukemia
RXF 393 renal = test system: RXF 393 renal
SF-268 CNS = test system: SF-268 CNS
SF-295 CNS = test system: SF-295 CNS
SF-539 CNS = test system: SF-539 CNS
SK-MEL-2 melanoma = test system: SK-MEL-2 melanoma
SK-MEL-28 melanoma = test system: SK-MEL-28 melanoma
SK-MEL-5 melanoma = test system: SK-MEL-5 melanoma
SK-OV-3 ovarian = test system: SK-OV-3 ovarian
SN12C renal = test system: SN12C renal
SNB-19 CNS = test system: SNB-19 CNS
SNB-75 CNS = test system: SNB-75 CNS
SR leukemia = test system: SR leukemia
SW-620 colon = test system: SW-620 colon
T-47D breast = test system: T-47D breast
TK-10 renal = test system: TK-10 renal
U251 CNS = test system: U251 CNS
UACC-257 melanoma = test system: UACC-257 melanoma
UACC-62 melanoma = test system: UACC-62 melanoma
UO-31 renal = test system: UO-31 renal

CS(=O)c1nccc(-c2c(-c3ccc(F)c(OCCc4ccc(F)cc4)c3)nc3sccn23)n1 (centres undefined)
GI50 (786-0 renal): 34.8 µM
TGI (786-0 renal): > 100 µM
GI50 (A498 renal): > 100 µM
TGI (A498 renal): > 100 µM
GI50 (A549 NSCLC): > 100 µM
TGI (A549 NSCLC): > 100 µM
GI50 (ACHN renal): 2.07 µM
TGI (ACHN renal): 4.37 µM
GI50 (BT-549 breast): 18.4 µM
TGI (BT-549 breast): 37.5 µM
GI50 (CAKI-1 renal): 11.1 µM
TGI (CAKI-1 renal): 23 µM
GI50 (CCRF-CEM leukemia): 5.16 µM
TGI (CCRF-CEM leukemia): 24 µM
GI50 (COLO 205 colon): 28.4 µM
TGI (COLO 205 colon): > 100 µM
GI50 (DU-145 prostate): 4.13 µM
TGI (DU-145 prostate): 14.5 µM
GI50 (EKVX NSCLC): 17 µM
TGI (EKVX NSCLC): 42.3 µM
GI50 (HCC-2998 colon): 11.7 µM
TGI (HCC-2998 colon): 24.9 µM
GI50 (HCT-116 colon): 3.52 µM
TGI (HCT-116 colon): 12.4 µM
GI50 (HCT-15 colon): 3.95 µM
TGI (HCT-15 colon): 16.9 µM
GI50 (HL-60(TB) leukemia): 2.5 µM
TGI (HL-60(TB) leukemia): 6.05 µM
GI50 (HOP-62 NSCLC): 16.2 µM
TGI (HOP-62 NSCLC): 32.2 µM
GI50 (HOP-92 NSCLC): 6.72 µM
TGI (HOP-92 NSCLC): 26.7 µM
GI50 (HS 578T breast): 19.9 µM
TGI (HS 578T breast): 79.6 µM
GI50 (HT29 colon): 14.9 µM
TGI (HT29 colon): 30.1 µM
GI50 (IGROV1 ovarian): 2.48 µM
TGI (IGROV1 ovarian): 6.65 µM
GI50 (K-562 leukemia): 3.04 µM
TGI (K-562 leukemia): 11.7 µM
GI50 (KM12 colon): 14.5 µM
TGI (KM12 colon): 29.2 µM
GI50 (LOX IMVI melanoma): 10.5 µM
TGI (LOX IMVI melanoma): 23.4 µM
GI50 (M14 melanoma): 15.2 µM
TGI (M14 melanoma): 30.4 µM
GI50 (MALME-3M melanoma): 15.3 µM
TGI (MALME-3M melanoma): 33.3 µM
GI50 (MCF7 breast): 2.02 µM
TGI (MCF7 breast): 4.81 µM
GI50 (MDA-MB-231 breast): 14.6 µM
TGI (MDA-MB-231 breast): 31.9 µM
GI50 (MDA-MB-435): 16.7 µM
TGI (MDA-MB-435): 32.2 µM
GI50 (MOLT-4 leukemia): 4.04 µM
TGI (MOLT-4 leukemia): 15.8 µM
GI50 (NCI-H226 lung): 15.5 µM
TGI (NCI-H226 lung): 32.4 µM
GI50 (NCI-H460 lung): 4.89 µM
TGI (NCI-H460 lung): 17.4 µM
GI50 (NCI-H522 lung): 13.5 µM
TGI (NCI-H522 lung): 29.7 µM
GI50 (NCI/ADR-RES ovarian): 20.3 µM
TGI (NCI/ADR-RES ovarian): 49 µM
GI50 (OVCAR-3 ovarian): 3.45 µM
TGI (OVCAR-3 ovarian): 12.9 µM
GI50 (OVCAR-4 ovarian): 14.7 µM
TGI (OVCAR-4 ovarian): 28.6 µM
GI50 (OVCAR-5 ovarian): 39.9 µM
TGI (OVCAR-5 ovarian): > 100 µM
GI50 (OVCAR-8 ovarian): 14.3 µM
TGI (OVCAR-8 ovarian): 28 µM
GI50 (PC-3 prostate): 11.9 µM
TGI (PC-3 prostate): 27.4 µM
GI50 (RPMI-8226 leukemia): 4.84 µM
TGI (RPMI-8226 leukemia): 28.4 µM
GI50 (RXF 393 renal): 13.3 µM
TGI (RXF 393 renal): 26.3 µM
GI50 (SF-268 CNS): 16.1 µM
TGI (SF-268 CNS): 32.1 µM
GI50 (SF-295 CNS): > 100 µM
TGI (SF-295 CNS): > 100 µM
GI50 (SF-539 CNS): 18 µM
TGI (SF-539 CNS): 41 µM
GI50 (SK-MEL-2 melanoma): 15.6 µM
TGI (SK-MEL-2 melanoma): 29.7 µM
GI50 (SK-MEL-28 melanoma): 9.81 µM
TGI (SK-MEL-28 melanoma): 21.5 µM
GI50 (SK-MEL-5 melanoma): 23.4 µM
TGI (SK-MEL-5 melanoma): 58.7 µM
GI50 (SK-OV-3 ovarian): > 100 µM
TGI (SK-OV-3 ovarian): > 100 µM
GI50 (SN12C renal): 15.2 µM
TGI (SN12C renal): 33.7 µM
GI50 (SNB-19 CNS): 14.6 µM
TGI (SNB-19 CNS): 29.3 µM
GI50 (SNB-75 CNS): 21.2 µM
TGI (SNB-75 CNS): > 100 µM
GI50 (SR leukemia): 4.22 µM
TGI (SR leukemia): 28.8 µM
GI50 (SW-620 colon): 3.5 µM
TGI (SW-620 colon): 14.1 µM
GI50 (T-47D breast): 2.49 µM
TGI (T-47D breast): 6.12 µM
GI50 (TK-10 renal): 30.9 µM
TGI (TK-10 renal): > 100 µM
GI50 (U251 CNS): 28.8 µM
TGI (U251 CNS): > 100 µM
GI50 (UACC-257 melanoma): 14.6 µM
TGI (UACC-257 melanoma): 29.5 µM
GI50 (UACC-62 melanoma): 16.1 µM
TGI (UACC-62 melanoma): 33.2 µM
GI50 (UO-31 renal): 1.82 µM
TGI (UO-31 renal): 4.11 µM
